Data reported in article PMC9889419 (Pharmacological Reports, 2022).
Counter-ions that a name gives are not always drawn.

Experiments:
Experiment in all cases: Radioligand binding
[1] = biological target: κ (KOP) (Rattus norvegicus, UniProt P34975)
Experimental: (§1) Radioligand binding. Radioligand binding assays were performed at Eurofins CEREP (France). The results are expressed as a percent of control specific binding (measured specific binding*100/control specific binding) and as a percent inhibition of control specific binding (100-(measured specific binding*100)/control specific binding) obtained in the presence of the test compounds. The IC50 values (concentration causing a half-maximal inhibition of control specific binding) and Hill coefficients (nH) were determined by non-linear regression analysis of the competition curves generated with mean replicate values using Hill equation curve fitting (Y = D + [A-D]/[1 + (C/C50)^nH], where Y = specific binding, A = left asymptote of the curve, D = right asymptote of the curve, C = compound concentration, C50 = IC50, and nH = slope factor). This analysis was performed using software developed at Cerep (Hill software) and validated by comparison with data generated by the commercial software SigmaPlot® 4.0 for Windows® (© 1997 by SPSS Inc.). The inhibition constants (Ki) were calculated using the Cheng Prusoff equation (Ki = IC50/[1 + L/KD], where L = concentration of radioligand in the assay, and KD = affinity of the radioligand for the receptor). A scatchard plot is used to determine the Kd.

[2] = biological target: T1, M4 (Homo sapiens, UniProt P08173)
T1 sequence (P08173 1-479): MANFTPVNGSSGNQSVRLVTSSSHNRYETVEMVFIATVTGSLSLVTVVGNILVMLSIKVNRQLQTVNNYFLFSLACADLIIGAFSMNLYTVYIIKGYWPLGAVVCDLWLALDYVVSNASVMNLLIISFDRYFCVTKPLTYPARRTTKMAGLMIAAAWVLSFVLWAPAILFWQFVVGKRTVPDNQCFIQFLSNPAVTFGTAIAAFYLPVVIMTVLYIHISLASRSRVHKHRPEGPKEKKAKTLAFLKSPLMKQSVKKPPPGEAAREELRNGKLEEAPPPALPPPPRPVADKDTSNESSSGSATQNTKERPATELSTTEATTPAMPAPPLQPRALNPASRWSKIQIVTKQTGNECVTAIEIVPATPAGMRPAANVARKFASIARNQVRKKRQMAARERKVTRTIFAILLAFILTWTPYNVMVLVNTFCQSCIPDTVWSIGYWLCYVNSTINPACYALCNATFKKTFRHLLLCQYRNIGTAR
Experimental: as §1

[3] = biological target: dopamine transporter (Homo sapiens, UniProt Q01959)
Experimental: as §1

[4] = biological target: T2, M1 (Homo sapiens, UniProt P11229)
T2 sequence (P11229 1-460): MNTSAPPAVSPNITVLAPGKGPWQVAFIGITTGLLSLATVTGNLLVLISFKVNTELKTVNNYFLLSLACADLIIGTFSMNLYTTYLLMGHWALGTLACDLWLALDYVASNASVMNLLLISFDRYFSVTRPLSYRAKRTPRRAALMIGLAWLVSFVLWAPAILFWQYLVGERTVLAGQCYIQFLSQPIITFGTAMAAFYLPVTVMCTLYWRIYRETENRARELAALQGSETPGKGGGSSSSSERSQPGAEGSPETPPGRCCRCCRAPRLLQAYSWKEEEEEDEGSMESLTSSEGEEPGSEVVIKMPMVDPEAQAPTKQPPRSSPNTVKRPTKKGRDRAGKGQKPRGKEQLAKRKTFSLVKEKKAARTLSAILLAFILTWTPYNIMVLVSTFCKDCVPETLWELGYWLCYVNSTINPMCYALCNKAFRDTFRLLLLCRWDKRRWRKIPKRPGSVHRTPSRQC
Experimental: as §1

[5] = biological target: D2S (Homo sapiens, UniProt P14416)
Experimental: as §1

[6] = biological target: T3, M5 (Homo sapiens, UniProt P08912)
T3 sequence (P08912 1-532): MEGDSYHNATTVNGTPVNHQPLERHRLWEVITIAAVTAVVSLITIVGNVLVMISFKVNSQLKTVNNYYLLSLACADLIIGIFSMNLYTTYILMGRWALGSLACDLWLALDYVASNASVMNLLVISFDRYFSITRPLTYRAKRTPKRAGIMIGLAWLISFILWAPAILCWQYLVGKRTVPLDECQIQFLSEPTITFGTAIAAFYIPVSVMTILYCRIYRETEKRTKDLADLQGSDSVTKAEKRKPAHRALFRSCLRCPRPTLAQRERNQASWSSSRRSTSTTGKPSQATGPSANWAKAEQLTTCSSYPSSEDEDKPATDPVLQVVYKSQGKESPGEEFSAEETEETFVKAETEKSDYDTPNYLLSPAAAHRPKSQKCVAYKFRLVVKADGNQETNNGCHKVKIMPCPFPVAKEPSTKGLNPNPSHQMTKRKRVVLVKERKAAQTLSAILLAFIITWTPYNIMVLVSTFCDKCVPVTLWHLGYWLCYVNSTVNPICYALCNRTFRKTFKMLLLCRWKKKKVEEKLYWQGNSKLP
Experimental: as §1

[7] = biological target: T4, 5-HT2C (Homo sapiens, UniProt P28335)
T4 sequence (P28335 33-458): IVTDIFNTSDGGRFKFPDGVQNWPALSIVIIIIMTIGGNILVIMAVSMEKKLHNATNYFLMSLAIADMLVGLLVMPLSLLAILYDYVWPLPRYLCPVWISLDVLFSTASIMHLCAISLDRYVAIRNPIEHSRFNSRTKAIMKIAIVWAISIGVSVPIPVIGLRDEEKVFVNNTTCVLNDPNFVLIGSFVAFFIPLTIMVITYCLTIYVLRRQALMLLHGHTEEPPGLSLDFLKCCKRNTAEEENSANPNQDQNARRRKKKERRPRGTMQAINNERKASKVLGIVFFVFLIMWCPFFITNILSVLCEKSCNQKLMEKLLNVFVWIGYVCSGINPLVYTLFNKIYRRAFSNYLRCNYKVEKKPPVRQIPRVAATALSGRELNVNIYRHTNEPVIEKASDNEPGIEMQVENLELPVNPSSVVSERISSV
Experimental: as §1

[8] = 0.01 μM, read-out: % of control specific binding
[9] = 0.1 μM, read-out: % of control specific binding
[10] = 1 μM, read-out: % of control specific binding
[11] = 10 μM, read-out: % of control specific binding
[12] = 100 μM, read-out: % of control specific binding
[13] = 3 μM, read-out: % of control specific binding

Sequence of D2S (P14416 1-414 isoform P14416-2): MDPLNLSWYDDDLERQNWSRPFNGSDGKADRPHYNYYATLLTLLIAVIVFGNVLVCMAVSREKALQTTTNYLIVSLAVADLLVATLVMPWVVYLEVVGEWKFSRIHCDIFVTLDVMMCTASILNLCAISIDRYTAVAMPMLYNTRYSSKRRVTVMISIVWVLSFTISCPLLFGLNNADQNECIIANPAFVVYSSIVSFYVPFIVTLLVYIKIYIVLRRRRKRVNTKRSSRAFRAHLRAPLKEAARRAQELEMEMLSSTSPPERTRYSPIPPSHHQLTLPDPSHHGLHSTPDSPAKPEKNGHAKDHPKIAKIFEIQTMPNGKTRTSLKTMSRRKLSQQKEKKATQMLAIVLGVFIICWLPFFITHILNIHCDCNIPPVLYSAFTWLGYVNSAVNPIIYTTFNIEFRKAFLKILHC
Sequence of dopamine transporter (Q01959 whole entry): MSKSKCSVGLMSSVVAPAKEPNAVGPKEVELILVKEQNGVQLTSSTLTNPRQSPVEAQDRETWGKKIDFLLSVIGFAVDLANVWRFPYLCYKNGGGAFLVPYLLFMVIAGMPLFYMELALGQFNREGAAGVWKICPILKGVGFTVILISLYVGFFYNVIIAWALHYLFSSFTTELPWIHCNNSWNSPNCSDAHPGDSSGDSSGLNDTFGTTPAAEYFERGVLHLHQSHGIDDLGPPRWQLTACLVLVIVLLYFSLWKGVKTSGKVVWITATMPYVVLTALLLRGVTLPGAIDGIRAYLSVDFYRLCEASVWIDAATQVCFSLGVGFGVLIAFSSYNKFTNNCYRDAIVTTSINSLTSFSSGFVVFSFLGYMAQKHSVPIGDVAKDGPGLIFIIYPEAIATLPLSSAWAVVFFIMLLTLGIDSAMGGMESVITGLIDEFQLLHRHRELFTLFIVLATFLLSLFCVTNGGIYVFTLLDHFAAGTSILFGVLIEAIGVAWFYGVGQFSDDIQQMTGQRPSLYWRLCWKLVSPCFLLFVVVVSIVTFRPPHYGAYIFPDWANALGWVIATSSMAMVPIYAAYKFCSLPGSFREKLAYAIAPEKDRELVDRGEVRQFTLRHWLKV
Sequence of κ (KOP) (P34975 whole entry): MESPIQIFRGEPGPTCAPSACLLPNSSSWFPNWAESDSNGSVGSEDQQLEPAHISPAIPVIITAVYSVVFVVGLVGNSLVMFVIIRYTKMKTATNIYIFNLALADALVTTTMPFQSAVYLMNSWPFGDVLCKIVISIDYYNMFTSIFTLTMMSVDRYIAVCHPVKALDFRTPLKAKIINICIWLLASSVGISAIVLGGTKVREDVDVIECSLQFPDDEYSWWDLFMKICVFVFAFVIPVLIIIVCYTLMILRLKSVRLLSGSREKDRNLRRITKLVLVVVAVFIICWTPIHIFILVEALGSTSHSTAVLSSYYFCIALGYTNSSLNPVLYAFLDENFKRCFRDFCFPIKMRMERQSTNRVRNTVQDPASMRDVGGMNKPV

With `CCC(CO)NCCOc1c(C)cccc1Cl` (centres unmarked) [Compound 4, R,S-2-((2-(2-chloro-6-methylphenoxy)ethyl)amino)butan-1-ol] the “% of control specific binding” value ([1]; 100 μM) was 29.0%, the “% of control specific binding” value ([2]; 100 μM) was 30.5% and the “% of control specific binding” value ([3]; 100 μM) was 29.6%. The “% of control specific binding” value ([4]; 100 μM) was 46.7%, the “% of control specific binding” value ([5]; 100 μM) was 33.3% and the “% of control specific binding” value ([6]; 100 μM) was 21.5%. For the same molecule, the “% of control specific binding” value ([7]; 100 μM) was 44.6%.

`CCC(CO)NCCOc1c(C)cccc1Cl` (centres unmarked) [KM-408, R,S-2-((2-(2-chloro-6-methylphenoxy)ethyl)amino)butan-1-ol hydrochloride] was tested, and the IC50 [1] was 25 µM, the Ki [1] was 17 µM and the remaining activity at 0.01 µM [1, 8] was 104%. For the same molecule, the remaining activity at 0.1 µM [1, 9] was 98.3%, the remaining activity at 1 µM [1, 10] was 97.3% and the remaining activity at 10 µM [1, 11] was 72.1%. It also gave a remaining activity at 100 µM [1, 12] of 21.1%, an IC50 [2] of 24 µM and a Ki [2] of 15 µM. For the same molecule, the remaining activity at 0.1 µM [2, 9] was 98%, the remaining activity at 1 µM [2, 10] was 92% and the remaining activity at 3 µM [2, 13] was 82.7%. It also gave a remaining activity at 10 µM [2, 11] of 67%, a remaining activity at 100 µM [2, 12] of 23.8% and an IC50 [3] of 43 µM. It also gave a Ki [3] of 23 µM, a remaining activity at 0.1 µM [3, 9] of 93.9% and a remaining activity at 1 µM [3, 10] of 87.8%. It also gave a remaining activity at 3 µM [3, 13] of 94.4%, a remaining activity at 10 µM [3, 11] of 72.6% and a remaining activity at 100 µM [3, 12] of 29.6%. The IC50 [4] was 64 µM, the Ki [4] was 55 µM and the remaining activity at 0.1 µM [4, 9] was 114%. The remaining activity at 1 µM [4, 10] was 108%, the remaining activity at 3 µM [4, 13] was 123% and the remaining activity at 10 µM [4, 11] was 99.7%. The remaining activity at 100 µM [4, 12] was 43.1%, the IC50 [5] was 100 µM and the Ki [5] was 34 µM. For the same molecule, the remaining activity at 0.1 µM [5, 9] was 96.2%, the remaining activity at 1 µM [5, 10] was 96.5% and the remaining activity at 3 µM [5, 13] was 92.8%. The remaining activity at 10 µM [5, 11] was 86%, the remaining activity at 100 µM [5, 12] was 49.1% and the IC50 [6] was 35 µM. For the same molecule, the Ki [6] was 18 µM, the remaining activity at 0.01 µM [6, 8] was 104% and the remaining activity at 0.1 µM [6, 9] was 92.6%. For the same molecule, the remaining activity at 1 µM [6, 10] was 96.8%, the remaining activity at 10 µM [6, 11] was 76.6% and the remaining activity at 100 µM [6, 12] was 26%. It also gave an IC50 [7] of 77 µM, a Ki [7] of 26 µM and a remaining activity at 0.1 µM [7, 9] of 95.6%. It also gave a remaining activity at 1 µM [7, 10] of 87.1%, a remaining activity at 3 µM [7, 13] of 95.2% and a remaining activity at 10 µM [7, 11] of 82.4%. It also gave a remaining activity at 100 µM [7, 12] of 40.6%.
